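How tested: cells in 96-well plates exposed to compound for 48 hours at five concentrations. GI50 is the concentration that inhibits growth by half.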 The source made the active and inactive calls. Cut-off read from the data, not from the text of the source: active = GI50 up to about 1.1 µM and inactive = higher.
Experiments:
Test in all cases: NCI-60 cell line screen, 48 h
786-0 = tested on: 786-0
PC-3 = tested on: PC-3
TK-10 = tested on: TK-10
COLO 205 = tested on: COLO 205
SK-OV-3 = tested on: SK-OV-3
HCT-116 = tested on: HCT-116
MDA-N = tested on: MDA-N
K562 = tested on: K562
OVCAR-4 = tested on: OVCAR-4
UO-31 = tested on: UO-31
HT-29 = tested on: HT-29
NCI-H226 = tested on: NCI-H226
HCT-15 = tested on: HCT-15
SN12C = tested on: SN12C
SW-620 = tested on: SW-620
CCRF-CEM = tested on: CCRF-CEM
HOP-62 = tested on: HOP-62
NCI-H522 = tested on: NCI-H522
HOP-92 = tested on: HOP-92

Structure (SMILES)	GI50 (786-0)	GI50 (PC-3)	GI50 (TK-10)	GI50 (COLO 205)	GI50 (SK-OV-3)	GI50 (HCT-116)	GI50 (MDA-N)	GI50 (K562)	GI50 (OVCAR-4)	GI50 (UO-31)	GI50 (HT-29)	GI50 (NCI-H226)	GI50 (HCT-15)	GI50 (SN12C)	GI50 (SW-620)	GI50 (CCRF-CEM)	GI50 (HOP-62)	GI50 (NCI-H522)	GI50 (HOP-92)
O=[N+]([O-])c1ccc(/C=C/c2cc(-c3ccccc3)nc3ccc4ccccc4c23)cc1	> 100 µM (inactive)	> 100 µM (inactive)	> 100 µM (inactive)	> 100 µM (inactive)	> 100 µM (inactive)	> 100 µM (inactive)	> 100 µM (inactive)	> 100 µM (inactive)	> 100 µM (inactive)	> 100 µM (inactive)	> 100 µM (inactive)	> 100 µM (inactive)	> 100 µM	> 100 µM (inactive)	> 100 µM (inactive)	> 100 µM (inactive)	> 100 µM (inactive)		
O=C(/C=C/c1ccccc1)Oc1cccc2cccnc12	> 44.4 µM (inactive)		> 84.5 µM (inactive)	14.5 µM (inactive)	41.1 µM (inactive)	3.33 µM (inactive)		3.85 µM (inactive)	6.87 µM (inactive)	6.35 µM (inactive)	7.93 µM (inactive)	26.7 µM (inactive)	6.17 µM	3.97 µM (inactive)	3.82 µM (inactive)	3.18 µM (inactive)	21.2 µM (inactive)	1.09 µM (active)	17.5 µM (inactive)
CC(C)(C)N/N=C(\C(=O)Nc1cccc(Cl)c1)C1C(=O)Nc2ccccc2[S+]1[O-] (centres undefined)	> 100 µM (inactive)		> 100 µM (inactive)	> 100 µM (inactive)	> 100 µM (inactive)	> 10 µM (inactive)			> 100 µM (inactive)	> 100 µM (inactive)	> 100 µM (inactive)	> 100 µM (inactive)	> 100 µM	> 100 µM (inactive)	> 100 µM (inactive)	> 100 µM (inactive)	> 100 µM (inactive)	> 100 µM (inactive)	74.8 µM (inactive)
[O-][n+]1c(-c2ccccc2)oc2ccccc21	22.6 µM (inactive)		26.6 µM (inactive)	18.6 µM (inactive)	> 67.5 µM (inactive)	13.1 µM (inactive)		11.9 µM (inactive)	24.5 µM (inactive)	13.1 µM (inactive)	21.4 µM (inactive)	30.8 µM (inactive)	6.12 µM	14.4 µM (inactive)	16.6 µM (inactive)	> 62.1 µM (inactive)	20.4 µM (inactive)	12 µM (inactive)	> 100 µM (inactive)
CCN(CC)CCNc1ccc2ncn3c4cc(O)ccc4c(=O)c1c23	2.48 µM (inactive)		6.65 µM (inactive)	2.41 µM (inactive)	9.62 µM (inactive)	1.57 µM (inactive)		2.11 µM (inactive)	2.45 µM (inactive)	5.71 µM (inactive)	1.95 µM (inactive)	2.82 µM (inactive)	3.65 µM	3.11 µM (inactive)	1.88 µM (inactive)	1.32 µM (inactive)	4.85 µM (inactive)	1.22 µM (inactive)	0.519 µM (active)
C=C(C)CC(C)(c1cc2ccccc2n1C)N1CCOCC1 (centres undefined)	> 100 µM (inactive)		> 100 µM (inactive)	> 100 µM (inactive)	> 100 µM (inactive)	60.1 µM (inactive)			> 100 µM (inactive)	22.9 µM (inactive)	> 100 µM (inactive)	69.8 µM (inactive)	75.7 µM	93.5 µM (inactive)	> 100 µM (inactive)	44.5 µM (inactive)	> 100 µM (inactive)	10.6 µM (inactive)	14.8 µM (inactive)
Fc1ccc2c(c1)cc1ccc3cccc4ccc2c1c34	> 100 µM (inactive)		> 100 µM (inactive)	> 100 µM (inactive)	> 100 µM (inactive)	> 100 µM (inactive)		> 100 µM (inactive)	> 100 µM (inactive)	> 100 µM (inactive)	> 100 µM (inactive)	> 100 µM (inactive)		> 100 µM (inactive)	> 100 µM (inactive)	> 100 µM (inactive)	> 100 µM (inactive)	> 100 µM (inactive)	> 100 µM (inactive)
CCOC(=O)C(=O)Nc1ccc(Cl)cc1C	> 100 µM (inactive)		> 100 µM (inactive)	> 100 µM (inactive)	> 100 µM (inactive)	> 100 µM (inactive)		> 100 µM (inactive)	> 100 µM (inactive)	> 100 µM (inactive)	> 100 µM (inactive)	> 100 µM (inactive)	> 100 µM	> 100 µM (inactive)	> 100 µM (inactive)	> 100 µM (inactive)	> 100 µM (inactive)	> 100 µM (inactive)	> 100 µM (inactive)
CC(=O)Nc1ccccc1S(=O)(=O)c1ccccc1	> 100 µM (inactive)		> 100 µM (inactive)	> 100 µM (inactive)	> 100 µM (inactive)	> 100 µM (inactive)		> 100 µM (inactive)	> 100 µM (inactive)	> 100 µM (inactive)	> 100 µM (inactive)	> 100 µM (inactive)	> 100 µM	> 100 µM (inactive)	> 100 µM (inactive)	> 100 µM (inactive)	> 100 µM (inactive)	> 100 µM (inactive)	43.9 µM (inactive)
CCCCCCCCCCCCC(Br)C(=O)SCCNC(=O)CCNC(=O)[C@@H](O)C(C)(C)COP(=O)(O)OP(=O)(O)OCC1OC(n2cnc3c(N)ncnc32)C(O)C1OP(=O)(O)O (some centres undefined)	> 56.5 µM (inactive)		> 56.5 µM (inactive)	> 56.5 µM (inactive)	> 56.5 µM (inactive)	22 µM (inactive)			> 56.5 µM (inactive)	> 56.5 µM (inactive)	> 56.5 µM (inactive)	> 56.5 µM (inactive)	> 56.5 µM	> 56.5 µM (inactive)	> 56.5 µM (inactive)	35.4 µM (inactive)	> 56.5 µM (inactive)	> 56.5 µM (inactive)	> 56.5 µM (inactive)
Nn1c(CCCCCCCCc2nnc(COc3ccc4ccccc4c3O)n2N)nnc1COc1ccc2ccccc2c1O	33.9 µM (inactive)	26.7 µM (inactive)	49.2 µM (inactive)	19.5 µM (inactive)	44 µM (inactive)	9.75 µM (inactive)		41.7 µM (inactive)	34.1 µM (inactive)	28.4 µM (inactive)	25.3 µM (inactive)	17.9 µM (inactive)	22.3 µM	39.3 µM (inactive)	52.7 µM (inactive)			14.6 µM (inactive)	17.3 µM (inactive)
CSC[S+]([O-])C[C@H](CO)NC(=O)/C=C/c1c(C)[nH]c(=O)[nH]c1=O (some centres undefined)	1.74 µM (inactive)		4.02 µM (inactive)	1.43 µM (inactive)	1.25 µM (inactive)	1.66 µM (inactive)		1.32 µM (inactive)	0.251 µM (active)	1.61 µM (inactive)	1.85 µM (inactive)	0.67 µM (active)	1.83 µM	0.776 µM (active)	2.21 µM (inactive)	1.19 µM (inactive)	1.15 µM (inactive)	0.731 µM (active)	0.257 µM (active)
